Measured values from article PMC8878452, “A Tale of Toxin Promiscuity: The Versatile Pharmacological Effects of Hcr 1b-2 Sea Anemone Peptide on Voltage-Gated Ion Channels” (Marine Drugs, 2022).
Entries after “also recorded” stand apart in the source; their conditions may differ. Bridges are numbered along the chain shown (N, C = ends). Where no end group is shown, it is not given here.

Tests used:
[1] = tested on: rKv1.3; assay: TEVC, Kv1.3 in Xenopus oocytes; assay type: cell-based, rat; details: 1 µM, ND96 pH 7.4, 18–22 °C, n ≥ 3
Excerpt: (§1) For the expression of Kv channels (rKv1.1, rKv1.2, rKv1.3, rKv1.4, rK1.5, rKv1.6, hKv2.1, hKv3.1, rKv4.2, hKv7.1, hKv7.2/7.3, hKv7.4, KQT1 (from the roundworm Caenorhabditis elegans), hKv10.1 (hEAG1), hKv11.1 (hERG1), and Shaker, from Drosophila melanogaster), Nav channels (rNav1.1, rNav1.2, rNav1.3, rNav1.4, hNav1.5, mNav1.6, hNav1.7, hNav1.8, and BgNav (from the cockroach Blattella germanica), as well as the hβ1 and rβ1 subunits, and Cav channels (rCav3.1, hCav3.2, and rCav3.3) in Xenopus oocytes, the linearized plasmids were transcribed using the T7 or SP6 mMESSAGEmMACHINE transcription kit (Ambion, Austin, TX, USA). Mature female animals were purchased from Nasco (Fort Atkinson, WI, USA) and were housed in the Aquatic Facility (KU Leuven) in compliance with the regulations of the European Union (EU) concerning the welfare of laboratory animals as declared in Directive 2010/63/EU. The use of X. laevis oocytes was approved by the Animal Ethics Committee of the KU Leuven, with the license number P186/2019. […]
(§2) Whole-cell currents of oocytes were recorded 1 to 3 days after RNA injection. […] The current–voltage relationships were determined by 50 ms step depolarizations between −90 and +65 mV using 5 or 10 mV increments. All electrophysiological data were analyzed following the procedures described by Peigneur et al., 2012 [20].
(§3) All values were expressed as means ± SEM. […]

[2] = tested on: hKv2.1; assay: TEVC, Kv2.1 in Xenopus oocytes; assay type: cell-based, human
Excerpt: (§4) For the expression of Kv channels (rKv1.1, rKv1.2, rKv1.3, rKv1.4, rK1.5, rKv1.6, hKv2.1, hKv3.1, rKv4.2, hKv7.1, hKv7.2/7.3, hKv7.4, KQT1 (from the roundworm Caenorhabditis elegans), hKv10.1 (hEAG1), hKv11.1 (hERG1), and Shaker, from Drosophila melanogaster), Nav channels (rNav1.1, rNav1.2, rNav1.3, rNav1.4, hNav1.5, mNav1.6, hNav1.7, hNav1.8, and BgNav (from the cockroach Blattella germanica), as well as the hβ1 and rβ1 subunits, and Cav channels (rCav3.1, hCav3.2, and rCav3.3) in Xenopus oocytes, the linearized plasmids were transcribed using the T7 or SP6 mMESSAGEmMACHINE transcription kit (Ambion, Austin, TX, USA). Mature female animals were purchased from Nasco (Fort Atkinson, WI, USA) and were housed in the Aquatic Facility (KU Leuven) in compliance with the regulations of the European Union (EU) concerning the welfare of laboratory animals as declared in Directive 2010/63/EU. The use of X. laevis oocytes was approved by the Animal Ethics Committee of the KU Leuven, with the license number P186/2019.
(§5) Stage V–VI oocytes were collected from anesthetized female X. laevis frog as previously described, with the frogs anesthetized by placement in a 0.1% tricaine solution (amino benzoic acid ethyl ester; Merck, Kenilworth, NJ, USA). Oocyte microinjection was performed using a microinjector (Drummond Scientifc®, Broomall, PA, USA), with a programmed cRNA injection volume of 4–50 nL, depending on channel subtype. The oocytes were incubated in ND96 solution (96 mM NaCl; 2 mM KCl; 1.8 mM CaCl2; 2 mM MgCl2, and 5 mM HEPES, pH 7.4), supplemented with 50 mg/L of gentamicin sulfate.
(§6) Electrophysiological measurements were performed at room temperature (18–22 °C) using the two-electrode voltage-clamp (TEVC) technique. Data were obtained using a GeneClamp 500 amplifier (Axon Instruments®, Burlingame, CA, USA) and Clampex9 software (Axon Instruments®, USA) was responsible for data acquisition and storage. Glass micropipettes were produced using glass capillaries (borosilicate WPI 1B120-6) and drawn in a WPI (World Precision Instruments®, Sarasota, FL, USA) manual stretcher. The bath and perfusion solutions were either the previously described ND96 (Nav and Kv channels) or calcium-free ND96 supplemented with 10 mM BaCl2 (Cav channels).
(§7) Whole-cell currents of oocytes were recorded 1 to 3 days after RNA injection. The current and voltage electrodes were filled with 3 M KCl, and their resistance was adjusted from 1.0 to 2.5 MΩ. Currents were sampled at 20 kHz (Nav channels) and 10 kHz (Kv and Cav channels) and filtered using a four-pole Bessel low-pass Bessel filter at 1 kHz for sodium and […] for potassium and calcium, except for the hERG ion channel in which the currents were filtered at 1 kHz. Leak subtraction was performed using a P/4 protocol. Kv1.x currents were evoked by 500 ms depolarizations to 0 mV, followed by a 500 ms pulse to −50 mV from a holding potential of −90 mV. Kv2.1, Kv3.1, Kv4.2, Kv7.x, and KQT1 currents were elicited by 700 ms pulses to +20 mV from a holding potential of −90 mV. Current traces of the hERG1 channel were elicited by applying a +40 mV prepulse for 2 s, followed by a step of −120 mV for 2 s. […] The current–voltage relationships were determined by 50 ms step depolarizations between −90 and +65 mV using 5 or 10 mV increments. All electrophysiological data were analyzed following the procedures described by Peigneur et al., 2012 [20].
as §3

[3] = tested on: hKv7.1; assay: TEVC, Kv7.1 in Xenopus oocytes; assay type: cell-based, human
Excerpt: as §4, §5, §6, §7, §3

[4] = tested on: KQT1; assay: TEVC, KQT1 in Xenopus oocytes; assay type: cell-based, Caenorhabditis elegans
Excerpt: as §4, §5, §6, §7, §3

[5] = tested on: hKv11.1 (hERG1); assay: TEVC, hERG in Xenopus oocytes; assay type: cell-based, human
Excerpt: as §4, §5, §6, §7, §3

[6] = tested on: Shaker; assay: TEVC, Shaker in Xenopus oocytes; assay type: cell-based, Drosophila melanogaster; details: 1 µM, ND96 pH 7.4, 18–22 °C, n ≥ 3
Excerpt: as §1, §2, §3

[7] = tested on: rNav1.1; assay: TEVC, Nav1.1 in Xenopus oocytes; assay type: cell-based, rat
Excerpt: as §4, §5, §6, §7, §3

[8] = tested on: mNav1.6; assay: TEVC, Nav1.6 in Xenopus oocytes; assay type: cell-based, mouse
Excerpt: as §4, §5, §6, §7, §3

[9] = tested on: hNav1.8; assay: TEVC, Nav1.8 in Xenopus oocytes; assay type: cell-based, human
Excerpt: as §4, §5, §6
Whole-cell currents of oocytes were recorded 1 to 3 days after RNA injection. The current and voltage electrodes were filled with 3 M KCl, and their resistance was adjusted from 1.0 to 2.5 MΩ. Currents were sampled at 20 kHz (Nav channels) and 10 kHz (Kv and Cav channels) and filtered using a four-pole Bessel low-pass Bessel filter at 1 kHz for sodium and […] for potassium and calcium, except for the hERG ion channel in which the currents were filtered at 1 kHz. Leak subtraction was performed using a P/4 protocol. Kv1.x currents were evoked by 500 ms depolarizations to 0 mV, followed by a 500 ms pulse to −50 mV from a holding potential of −90 mV. Kv2.1, Kv3.1, Kv4.2, Kv7.x, and KQT1 currents were elicited by 700 ms pulses to +20 mV from a holding potential of −90 mV. Current traces of the hERG1 channel were elicited by applying a +40 mV prepulse for 2 s, followed by a step of −120 mV for 2 s. Current traces of hEAG1 were elicited by a 2 s depolarization to 0 mV from a holding potential of −90 mV. Sodium current traces were evoked by a 100 ms depolarization to 0 mV. For Cav channels, current traces were elicited by 700 ms depolarizations to −20 mV from a holding potential of −90 mV. The current–voltage relationships were determined by 50 ms step depolarizations between −90 and +65 mV using 5 or 10 mV increments. All electrophysiological data were analyzed following the procedures described by Peigneur et al., 2012 [20].
All values were expressed as means ± SEM. Differences in ionic currents between the control and toxin conditions were compared by a one-way ANOVA, followed by Dunnett’s multiple comparisons test. Differences were considered statistically significant when […].

[10] = tested on: hCav3.2; assay: TEVC, Cav3.2 in Xenopus oocytes; assay type: cell-based, human
Excerpt: as §4, §5, §6, §7, §3

[11] = tested on: voltage-gated potassium (KV), sodium (NaV), and calcium (CaV) channels; assay: TEVC screening panel of 28 voltage-gated ion channels; assay type: cell-based; details: 1 µM; 28 channels screened
Excerpt: as §1, §2, §3

[12] = 1 µM, 700 ms pulse to +20 mV from −90 mV, mean ± SEM, n ≥ 3
[13] = 1 µM, TEVC, ND96 pH 7.4, 18–22 °C, n ≥ 3
[14] = 1 µM, 100 ms depolarization to 0 mV, mean ± SEM, n ≥ 3
[15] = 1 µM vs control (ND96 Ca2+ free)

GTPCKCHGYIGVYWFMLAGCPNGYGYNLSCPYFLGICCVKK (disulfide 4-37, 6-30, 20-38 (inferred)) [Hcr 1b-2]
effect on potassium current, Kv1.3 [1]: inhibition
gating-modifier effect (voltage-current relationship), Kv2.1 ([2]; 1 µM): non-significant gating-modifier effect
Shift in Vhalf activation, Kv2.1 ([2]; 1 µM vs control (ND96)): 2.6 mV
activity (inhibition of current), Kv2.1 [2, 12]: 32.6 ± 3.4%
effect on potassium current, Kv2.1 [2, 13]: inhibition
Vhalf activation, Kv2.1 ([2]; 1 µM, control (ND96) 5.3 ± 0.3, mean ± SEM): 8.0 ± 0.2 mV
gating-modifier effect (voltage-current relationship), Kv7.1 ([3]; 1 µM): stronger shift
Shift in Vhalf activation, Kv7.1 ([3]; 1 µM vs control (ND96)): 6.4 mV
activity (inhibition of current), Kv7.1 [3, 12]: 36.2 ± 1.3%
effect on potassium current, Kv7.1 [3, 13]: inhibition; also recorded: inhibits
Vhalf activation, Kv7.1 ([3]; 1 µM, control (ND96) 5.8 ± 0.4, mean ± SEM): 12.2 ± 0.6 mV
gating-modifier effect (voltage-current relationship), KQT1 ([4]; 1 µM): stronger shift
Shift in Vhalf activation, KQT1 ([4]; 1 µM vs control (ND96)): 7.9 mV
activity (inhibition of current), KQT1 [4, 12]: 33.4 ± 3.3%
effect on potassium current, KQT1 [4, 13]: inhibition
Vhalf activation, KQT1 ([4]; 1 µM, control (ND96) 14.6 ± 0.4, mean ± SEM): 22.4 ± 0.5 mV
gating-modifier effect (voltage-current relationship), hERG ([5]; 1 µM): stronger shift; also recorded: strong shift towards more positive potentials; also recorded: significantly shift the current-voltage relationship of hERG
effect on potassium current, hERG ([5]; 1 µM, TEVC, ND96 pH 7.4, 18–22 °C, n = 3): inhibition; also recorded: strong hERG modulator
Vhalf activation, hERG (peak) ([5]; 1 µM, peak current, control (ND96) −13.7 ± 0.5, mean ± SEM, n = 3): 12.6 ± 0.4 mV
Vhalf activation, hERG (tail) ([5]; 1 µM, tail current, control (ND96) −22.9 ± 0.6, mean ± SEM, n = 3): 0.6 ± 0.7 mV
inhibition at 1 µM ([5]; human, Xenopus laevis oocytes expressing hKv11.1 (hERG1), pH 7.4, +40 mV prepulse 2 s, then −120 mV 2 s, mean ± SEM, n = 3, read-out: activity (inhibition of current), hERG): 51.7 ± 7.6%
effect on potassium current, Shaker [6]: activation
Shift in Vhalf activation, Nav1.1 ([7]; 1 µM vs control (ND96)): 0.1 mV
Shift in Vhalf inactivation, Nav1.1 ([7]; 1 µM vs control (ND96)): −5.8 mV
reduction of peak amplitude (INa) / inhibition, Nav1.1 [7, 14]: 31.2 ± 3.8%
Vhalf activation, Nav1.1 ([7]; 1 µM, control (ND96) −24.6 ± 0.1, mean ± SEM, n ≥ 3): −24.5 ± 0.1 mV
Vhalf inactivation, Nav1.1 ([7]; 1 µM, control (ND96) −37.2 ± 0.2, mean ± SEM, n ≥ 3): −43 ± 0.4 mV
Shift in Vhalf activation, Nav1.6 ([8]; 1 µM vs control (ND96)): 3.5 mV
Shift in Vhalf inactivation, Nav1.6 ([8]; 1 µM vs control (ND96)): −7.6 mV
reduction of peak amplitude (INa), Nav1.6 [8, 14]: 41.8 ± 7.1%
Vhalf activation, Nav1.6 ([8]; 1 µM, control (ND96) −23.5 ± 0.1, mean ± SEM, n ≥ 3): −20.0 ± 0.1 mV
Vhalf inactivation, Nav1.6 ([8]; 1 µM, control (ND96) −49.1 ± 0.3, mean ± SEM, n ≥ 3): −56.7 ± 0.4 mV
effect on activation or inactivation, Nav1.8 ([9]; 1 µM): no significant effect
Shift in Vhalf activation, Nav1.8 ([9]; 1 µM vs control (ND96)): −0.3 mV
Shift in Vhalf inactivation, Nav1.8 ([9]; 1 µM vs control (ND96)): −1.3 mV
reduction of peak amplitude (INa), Nav1.8 [9, 14]: 18.5 ± 1.9%
Vhalf activation, Nav1.8 ([9]; 1 µM, control (ND96) −2.3 ± 0.1, mean ± SEM, n ≥ 3): −2.6 ± 0.1 mV
Vhalf inactivation, Nav1.8 ([9]; 1 µM, control (ND96) −35.6 ± 0.4, mean ± SEM, n ≥ 3): −36.9 ± 0.5 mV
Shift in Vhalf activation, Cav3.2 [10, 15]: −0.4 mV
Shift in Vhalf inactivation, Cav3.2 [10, 15]: 0.5 mV
inhibition, Cav3.2 ([10]; 1 µM, calcium-free ND96 + 10 mM BaCl2, 700 ms depolarization to −20 mV from −90 mV, mean ± SEM, n ≥ 3): 35.1 ± 0.7%
Vhalf activation, Cav3.2 ([10]; 1 µM, control (ND96 Ca2+ free) −31.9 ± 0.1, mean ± SEM, n ≥ 3): −32.3 ± 0.2 mV
Vhalf inactivation, Cav3.2 ([10]; 1 µM, control (ND96 Ca2+ free) −46.6 ± 0.8, mean ± SEM, n ≥ 3): −46.1 ± 0.6 mV
number of targets acted on, of 28 screened ion channels [11]: 26 targets
